In US20240376100A1 (Redona Therapeutics, Inc., priority 2021, published 2024):

biological target: PAPD5 enzyme (Homo sapiens, UniProt Q8NDF8); assay: PAPD5 assay (AMP incorporation onto 3'-terminus of RNA substrate, fluorescence quench); assay type: biochemical; conditions: PAPD5 protein 0.3 nM, ATP 50 μM, 30 minutes preincubation, room temperature; read-out: Potency PAPD5 IC50
Method in brief: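 Enzyme at 0.3 nM with 50 μM ATP, pH 7.3 HEPES buffer, preincubated with compound 30 minutes at room temperature; 5 nM 5′-fluorescein RNA substrate and 20 nM TAMRA quench probe then added. Initial rates from kinetic fluorescein decrease over ~90 minutes; IC50 by four-parameter fit.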

PAPD5 enzyme, sequence (Q8NDF8 whole entry): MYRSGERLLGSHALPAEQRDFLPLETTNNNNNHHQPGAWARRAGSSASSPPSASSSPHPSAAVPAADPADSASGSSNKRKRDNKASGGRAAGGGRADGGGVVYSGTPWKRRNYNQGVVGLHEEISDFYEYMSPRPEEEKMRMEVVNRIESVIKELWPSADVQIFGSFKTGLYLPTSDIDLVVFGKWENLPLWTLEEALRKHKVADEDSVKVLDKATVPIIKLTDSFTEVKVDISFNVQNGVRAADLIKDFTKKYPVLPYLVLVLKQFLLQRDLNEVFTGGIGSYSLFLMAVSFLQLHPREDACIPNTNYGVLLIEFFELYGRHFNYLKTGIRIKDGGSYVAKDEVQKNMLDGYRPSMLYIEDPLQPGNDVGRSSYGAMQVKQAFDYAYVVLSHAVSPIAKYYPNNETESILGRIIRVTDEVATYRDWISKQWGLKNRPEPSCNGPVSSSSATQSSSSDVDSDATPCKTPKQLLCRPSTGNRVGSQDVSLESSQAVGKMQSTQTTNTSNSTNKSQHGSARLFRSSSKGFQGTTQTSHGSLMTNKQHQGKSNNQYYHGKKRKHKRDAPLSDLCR

IC50, ≤ 1000 nM:
Cc1cc(N)ncc1-n1cc(C(=O)O)c(=O)c2cc(Cl)c(N3Cc4ccncc4C3)nc21 [Example 159, 1-(6-amino-4-methylpyridin-3-yl)-6-chloro-7-(1,3-dihydro-2H-pyrrolo[3,4-c]pyridin-2-yl)-4-oxo-1,4-dihydro-1,8-naphthyridine-3-carboxylic acid]
Cc1cc(N)ncc1-n1cc(C(=O)O)c(=O)c2cc(Cl)c(N3Cc4ccc(F)cc4C3)nc21 [Example 160, 1-(6-amino-4-methylpyridin-3-yl)-6-chloro-7-(5-fluoroisoindolin-2-yl)-4-oxo-1,4-dihydro-1,8-naphthyridine-3-carboxylic acid]
COc1ccc2c(c1)CN(c1nc3c(cc1Cl)c(=O)c(C(=O)O)cn3-c1cnc(N)cc1C)C2 [Example 161, 1-(6-amino-4-methylpyridin-3-yl)-6-chloro-7-(5-methoxyisoindolin-2-yl)-4-oxo-1,4-dihydro-1,8-naphthyridine-3-carboxylic acid]
Cc1cc(N)ncc1-n1cc(C(=O)O)c(=O)c2cc(Cl)c(-n3ccc(N(C)C)n3)nc21 [Example 162, 1-(6-amino-4-methylpyridin-3-yl)-6-chloro-7-(3-(dimethylamino)-1H-pyrazol-1-yl)-4-oxo-1,4-dihydro-1,8-naphthyridine-3-carboxylic acid]
Cc1cc(NC(=O)OC(C)(C)C)ncc1-n1cc(C(=O)O)c(=O)c2cc(Cl)c(-n3cccn3)nc21 [Example 164, 1-(6-((tert-butoxycarbonyl)amino)-4-methylpyridin-3-yl)-6-chloro-4-oxo-7-(1H-pyrazol-1-yl)-1,4-dihydro-1,8-naphthyridine-3-carboxylic acid]
Cc1cc(NC(=O)OC(C)(C)C)ncc1-n1cc(C(=O)O)c(=O)c2cc(Cl)c(N3Cc4ccccc4C3)nc21 [Example 165, 1-(6-((tert-butoxycarbonyl)amino)-4-methylpyridin-3-yl)-6-chloro-7-(isoindolin-2-yl)-4-oxo-1,4-dihydro-1,8-naphthyridine-3-carboxylic acid]
Cc1cc(NC(=O)OC(C)(C)C)ncc1-n1cc(C(=O)O)c(=O)c2cc(Cl)c(N3Cc4cccc(F)c4C3)nc21 [Example 166, 1-(6-((tert-butoxycarbonyl)amino)-4-methylpyridin-3-yl)-6-chloro-7-(4-fluoroisoindolin-2-yl)-4-oxo-1,4-dihydro-1,8-naphthyridine-3-carboxylic acid]
Cc1cc(NC(=O)OC(C)(C)C)ncc1-n1cc(C(=O)O)c(=O)c2cc(Cl)c(N3Cc4ccncc4C3)nc21 [Example 167, 1-(6-((tert-butoxycarbonyl)amino)-4-methylpyridin-3-yl)-6-chloro-7-(1,3-dihydro-2H-pyrrolo[3,4-c]pyridin-2-yl)-4-oxo-1,4-dihydro-1,8-naphthyridine-3-carboxylic acid]
CNc1cc(C)c(-n2cc(C(=O)O)c(=O)c3cc(Cl)c(N4Cc5cccnc5C4)nc32)cn1 [Example 170, 6-chloro-7-(5,7-dihydro-6H-pyrrolo[3,4-b]pyridin-6-yl)-1-(4-methyl-6-(methylamino)pyridin-3-yl)-4-oxo-1,4-dihydro-1,8-naphthyridine-3-carboxylic acid]
CNCCNc1cc(C)c(-n2cc(C(=O)O)c(=O)c3cc(Cl)c(N4Cc5cccnc5C4)nc32)cn1 [Example 171, 6-chloro-7-(5,7-dihydro-6H-pyrrolo[3,4-b]pyridin-6-yl)-1-(4-methyl-6-((2-(methylamino)ethyl)amino)pyridin-3-yl)-4-oxo-1,4-dihydro-1,8-naphthyridine-3-carboxylic acid]
Cc1cc(NCCN2CCCCC2)ncc1-n1cc(C(=O)O)c(=O)c2cc(Cl)c(N3Cc4cccnc4C3)nc21 [Example 172, 6-chloro-7-(5,7-dihydro-6H-pyrrolo[3,4-b]pyridin-6-yl)-1-(4-methyl-6-((2-(piperidin-1-yl)ethyl)amino)pyridin-3-yl)-4-oxo-1,4-dihydro-1,8-naphthyridine-3-carboxylic acid]
Cc1cc(NC(=O)C2CCC2)ncc1-n1cc(C(=O)O)c(=O)c2cc(Cl)c(N3Cc4cccnc4C3)nc21 [Example 174, 6-chloro-1-(6-(cyclobutanecarboxamido)-4-methylpyridin-3-yl)-7-(5,7-dihydro-6H-pyrrolo[3,4-b]pyridin-6-yl)-4-oxo-1,4-dihydro-1,8-naphthyridine-3-carboxylic acid]
Cc1cc(NC(=O)OC(C)(C)C)ncc1-n1cc(C(=O)O)c(=O)c2cc(Cl)c(N3CCc4ccccc4C3)nc21 [Example 175, 1-(6-((tert-butoxycarbonyl)amino)-4-methylpyridin-3-yl)-6-chloro-7-(3,4-dihydroisoquinolin-2(1H)-yl)-4-oxo-1,4-dihydro-1,8-naphthyridine-3-carboxylic acid]
Cc1cc(N)ncc1-n1cc(C(=O)O)c(=O)c2cc(Cl)c(N3CCc4ccccc4C3)nc21 [Example 176, 1-(6-amino-4-methylpyridin-3-yl)-6-chloro-7-(3,4-dihydroisoquinolin-2(1H)-yl)-4-oxo-1,4-dihydro-1,8-naphthyridine-3-carboxylic acid]
Cc1cc(N(C)CCN2CCCCC2)ncc1-n1cc(C(=O)O)c(=O)c2cc(Cl)c(N3Cc4cccnc4C3)nc21 [Example 177, 6-chloro-7-(5,7-dihydro-6H-pyrrolo[3,4-b]pyridin-6-yl)-1-(4-methyl-6-(methyl(2-(piperidin-1-yl)ethyl)amino)pyridin-3-yl)-4-oxo-1,4-dihydro-1,8-naphthyridine-3-carboxylic acid]
COc1cccc2c1CN(c1nc3c(cc1Cl)c(=O)c(C(=O)O)cn3-c1cnc(N)cc1C)C2 [Example 178, 1-(6-amino-4-methylpyridin-3-yl)-6-chloro-7-(4-methoxyisoindolin-2-yl)-4-oxo-1,4-dihydro-1,8-naphthyridine-3-carboxylic acid]
Cc1cc(N)ncc1-n1cc(C(=O)O)c(=O)c2cc(Cl)c(N3Cc4cncnc4C3)nc21 [Example 179, 1-(6-amino-4-methylpyridin-3-yl)-6-chloro-7-(5,7-dihydro-6H-pyrrolo[3,4-d]pyrimidin-6-yl)-4-oxo-1,4-dihydro-1,8-naphthyridine-3-carboxylic acid]
Cc1cc(N)ncc1-n1cc(C(=O)O)c(=O)c2cc(Cl)c(N3CCc4cccnc4C3)nc21 [Example 180, 1-(6-amino-4-methylpyridin-3-yl)-6-chloro-7-(5,8-dihydro-1,7-naphthyridin-7(6H)-yl)-4-oxo-1,4-dihydro-1,8-naphthyridine-3-carboxylic acid]
Cc1cc(N)ncc1-n1cc(C(=O)O)c(=O)c2cc(F)c(N3CCc4ccccc4C3)cc21 [Example 181, 1-(6-amino-4-methylpyridin-3-yl)-7-(3,4-dihydroisoquinolin-2(1H)-yl)-6-fluoro-4-oxo-1,4-dihydroquinoline-3-carboxylic acid]
Cc1cc(NC(=O)OC(C)(C)C)ncc1-n1cc(C(=O)O)c(=O)c2cc(Cl)c(N3CCc4cccnc4C3)nc21 [Example 182, 1-(6-((tert-butoxycarbonyl)amino)-4-methylpyridin-3-yl)-6-chloro-7-(5,8-dihydro-1,7-naphthyridin-7(6H)-yl)-4-oxo-1,4-dihydro-1,8-naphthyridine-3-carboxylic acid]
Cc1cc(N2CCC2)ncc1-n1cc(C(=O)O)c(=O)c2cc(F)c(N3Cc4cccnc4C3)nc21 [Example 183, 1-(6-(azetidin-1-yl)-4-methylpyridin-3-yl)-7-(5,7-dihydro-6H-pyrrolo[3,4-b]pyridin-6-yl)-6-fluoro-4-oxo-1,4-dihydro-1,8-naphthyridine-3-carboxylic acid]
Cc1cc(NC(=O)OC(C)(C)C)ncc1-n1cc(C(=O)O)c(=O)c2cc(F)c(N3CCc4ccccc4C3)cc21 [Example 184, 1-(6-((tert-butoxycarbonyl)amino)-4-methylpyridin-3-yl)-7-(3,4-dihydroisoquinolin-2(1H)-yl)-6-fluoro-4-oxo-1,4-dihydroquinoline-3-carboxylic acid]
Cc1cc(N)ncc1-n1cc(C(=O)O)c(=O)c2cc(Cl)c(N3CCc4ccncc4C3)nc21 [Example 185, 1-(6-amino-4-methylpyridin-3-yl)-6-chloro-7-(3,4-dihydro-2,7-naphthyridin-2(1H)-yl)-4-oxo-1,4-dihydro-1,8-naphthyridine-3-carboxylic acid]
Cc1cc(N)ncc1-n1cc(C(=O)O)c(=O)c2cc(Cl)c(N3CCc4ncccc4C3)nc21 [Example 186, 1-(6-amino-4-methylpyridin-3-yl)-6-chloro-7-(7,8-dihydro-1,6-naphthyridin-6(5H)-yl)-4-oxo-1,4-dihydro-1,8-naphthyridine-3-carboxylic acid]
Cc1cc(NC(=O)OC(C)(C)C)ncc1-n1cc(C(=O)O)c(=O)c2cc(Cl)c(N3CCc4ccncc4C3)nc21 [Example 187, 1-(6-((tert-butoxycarbonyl)amino)-4-methylpyridin-3-yl)-6-chloro-7-(3,4-dihydro-2,7-naphthyridin-2(1H)-yl)-4-oxo-1,4-dihydro-1,8-naphthyridine-3-carboxylic acid]
Cc1cc(N2CC(N(C)C)C2)ncc1-n1cc(C(=O)O)c(=O)c2cc(Cl)c(N3Cc4cccnc4C3)nc21 [Example 188, 6-chloro-7-(5,7-dihydro-6H-pyrrolo[3,4-b]pyridin-6-yl)-1-(6-(3-(dimethylamino)azetidin-1-yl)-4-meth-ylpyridin-3-yl)-4-oxo-1,4-dihydro-1,8-naphthyridine-3-carboxylic acid]
Cc1cc(N2CCC2)ncc1-n1cc(C(=O)O)c(=O)c2cc(Cl)c(N3Cc4cccnc4C3)cc21 [Example 189, 1-(6-(azetidin-1-yl)-4-methylpyridin-3-yl)-6-chloro-7-(5,7-dihydro-6H-pyrrolo[3,4-b]pyridin-6-yl)-4-oxo-1,4-dihydroquinoline-3-carboxylic acid]
